Measured values as given in PMC6946862 (Molecular carcinogenesis, 2019).

Target: NAE1 (APP-BP1/UBA3, NEDD8-activating enzyme E1 regulatory subunit) (Homo sapiens, UniProt Q13564)
Experiment: in vitro NEDD8 initiation conjugation assay
Type: biochemical

Sequence of NAE1 (APP-BP1/UBA3, NEDD8-activating enzyme E1 regulatory subunit) (Q13564 2-534): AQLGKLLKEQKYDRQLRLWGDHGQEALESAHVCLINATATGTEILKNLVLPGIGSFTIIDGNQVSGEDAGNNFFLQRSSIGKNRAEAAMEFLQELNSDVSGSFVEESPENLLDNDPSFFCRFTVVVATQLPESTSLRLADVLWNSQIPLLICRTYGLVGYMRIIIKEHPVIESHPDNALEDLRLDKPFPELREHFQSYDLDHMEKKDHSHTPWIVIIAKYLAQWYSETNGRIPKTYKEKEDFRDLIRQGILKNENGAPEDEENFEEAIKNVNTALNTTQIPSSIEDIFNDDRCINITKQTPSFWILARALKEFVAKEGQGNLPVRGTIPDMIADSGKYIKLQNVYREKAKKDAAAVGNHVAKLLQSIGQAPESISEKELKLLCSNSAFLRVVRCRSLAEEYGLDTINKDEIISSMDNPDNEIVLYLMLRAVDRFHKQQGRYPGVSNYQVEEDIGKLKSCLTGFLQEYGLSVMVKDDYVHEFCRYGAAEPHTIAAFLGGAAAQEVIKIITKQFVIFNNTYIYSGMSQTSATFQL
Sequence of NAE1 (APP-BP1/UBA3, NEDD8-activating enzyme E1 regulatory subunit) (Q8TBC4 2-463 partner): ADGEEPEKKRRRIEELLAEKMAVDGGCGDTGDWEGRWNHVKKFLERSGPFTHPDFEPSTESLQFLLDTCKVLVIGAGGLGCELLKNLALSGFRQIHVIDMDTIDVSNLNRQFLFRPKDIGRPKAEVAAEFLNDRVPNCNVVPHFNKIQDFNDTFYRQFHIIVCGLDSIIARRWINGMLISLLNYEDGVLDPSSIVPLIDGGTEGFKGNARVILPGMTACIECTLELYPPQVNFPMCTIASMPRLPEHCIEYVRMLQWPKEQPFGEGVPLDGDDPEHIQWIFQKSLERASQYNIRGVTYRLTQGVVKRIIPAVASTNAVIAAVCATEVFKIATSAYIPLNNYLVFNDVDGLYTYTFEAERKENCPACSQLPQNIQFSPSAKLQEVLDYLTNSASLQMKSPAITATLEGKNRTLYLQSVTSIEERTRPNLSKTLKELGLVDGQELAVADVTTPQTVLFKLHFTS
Sequence of NAE1 (APP-BP1/UBA3, NEDD8-activating enzyme E1 regulatory subunit) (P61081 whole entry partner): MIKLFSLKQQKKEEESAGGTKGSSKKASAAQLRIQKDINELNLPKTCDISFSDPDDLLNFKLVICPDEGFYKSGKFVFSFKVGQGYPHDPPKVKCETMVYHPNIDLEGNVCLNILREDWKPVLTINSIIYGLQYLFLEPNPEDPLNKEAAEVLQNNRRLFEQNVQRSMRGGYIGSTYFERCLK
Sequence of NAE1 (APP-BP1/UBA3, NEDD8-activating enzyme E1 regulatory subunit) (Q15843 1-76 partner): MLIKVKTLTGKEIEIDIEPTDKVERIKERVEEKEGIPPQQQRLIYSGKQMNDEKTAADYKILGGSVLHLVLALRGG

IC50: ~10.3 µM
SMILES: CC(C)=CCc1c(O)c(CC=C(C)C)c2oc3c(O)ccc(O)c3c(=O)c2c1O [Gartanin]
